Laboratory results taken from patent US20260347372A1, “SMALL MOLECULE INHIBITORS OF KRAS G12D MUTANT” (MERCK SHARP & DOHME LLC, priority 2023, published 2026).

What was measured:
Assay type in all cases: biochemical
KRAS G12D = KRAS G12D (Homo sapiens, UniProt P01116, G12D); test: SOS-catalyzed nucleotide exchange assay, KRAS G12D (Procedure B; Example 14); parameters: KRAS G12D (amino acids 1-169, N-terminal His-tag); made in house; host or cells: E. coli; settings: 1 hour compound incubation, SOS1 and GMPPNP 30 minutes, read-out: KRAS G12D GNE IC50
Experimental: (§1) Procedure for SOS-Catalyzed Nucleotide Exchange Assay for KRAS-G12C/D/V/WT (Procedure B)
(§2) Recombinant KRAS G12C (amino acids 1-169, SEQ ID NO:9), KRAS G12D (amino acids 1-169, SEQ ID NO:10), KRAS G12V (amino acids 1-169, SEQ ID NO:11), KRAS WT (amino acids 1-169, SEQ ID NO:12) and SOS1 (amino acids 564-1049, SEQ ID NO:13) proteins were expressed in E. coli and purified by affinity chromatography. To prepare each BODIPY™ FL GDP-bound KRAS protein, 50 μM KRAS proteins were incubated with 0.5 mM BODIPY™ FL GDP (Invitrogen, G22360) in a loading buffer (20 mM Tris-HCl pH 7.5, 50 mM NaCl, 1 mM DTT and 2.5 mM EDTA) for 1 hour on ice. After the incubation, MgCl2 was added to a final concentration of 10 mM, followed by an incubation at room temperature for 30 minutes. The mixtures were allowed to pass through a NAP-5 column to remove free nucleotides and purified BODIPY™ FL GDP-bound KRAS G12C, G12D, G12V and WT proteins were used for compound evaluation.
(§3) The inhibitory activity of compounds on recombinant KRAS is measured by the displacement of the bound BODIPY™ GDP. […] Displacement of BODIPY™ FL GDP by Guanosine-5′-[(β,γ)-imido]triphosphate, Tetralithium salt (GMPPNP) was measured by calculating the ratio of fluorescence intensities of BODIPY™ FL before and after the exchange reaction. […] Dose response curves were analyzed using a 4-parameter logistic model to calculate IC50 values. […]

KRAS G12V = KRAS G12V (Homo sapiens, UniProt P01116, G12V); test: SOS-catalyzed nucleotide exchange assay, KRAS G12V (Procedure B; Example 14); parameters: KRAS G12V (amino acids 1-169, N-terminal His-tag); made in house; host or cells: E. coli; settings: 1 hour compound incubation, SOS1 and GMPPNP 30 minutes, read-out: KRAS G12V GNE IC50
Experimental: as §1, §2, §3

KRAS G12C = biological target: T1, KRAS G12C (Homo sapiens, UniProt P01116, G12C); test: SOS-catalyzed nucleotide exchange assay, KRAS G12C (Procedure B; Example 14); settings: 1 hour compound incubation, SOS1 and GMPPNP 30 minutes, read-out: KRAS G12C GNE IC50
T1 construct: KRAS G12C (amino acids 1-169, N-terminal His-tag); made in house; host or cells: E. coli
Experimental: as §1, §2, §3

KRAS WT = KRAS WT (Homo sapiens, UniProt P01116); test: SOS-catalyzed nucleotide exchange assay, KRAS WT (Procedure B; Example 14); parameters: KRAS WT (amino acids 1-169, N-terminal His-tag); made in house; host or cells: E. coli; settings: 1 hour compound incubation, SOS1 and GMPPNP 30 minutes, read-out: KRAS WT GNE IC50
Experimental: as §1, §2, §3

KRAS G12D, sequence (P01116 with tags, fused parts or gaps isoform P01116-2 G12D): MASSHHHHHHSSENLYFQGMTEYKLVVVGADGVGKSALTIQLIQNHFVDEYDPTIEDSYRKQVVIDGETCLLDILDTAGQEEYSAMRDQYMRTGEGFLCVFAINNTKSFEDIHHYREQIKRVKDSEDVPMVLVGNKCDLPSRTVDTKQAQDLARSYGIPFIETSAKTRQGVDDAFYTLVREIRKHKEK
KRAS WT, sequence (P01116 with tags, fused parts or gaps isoform P01116-2): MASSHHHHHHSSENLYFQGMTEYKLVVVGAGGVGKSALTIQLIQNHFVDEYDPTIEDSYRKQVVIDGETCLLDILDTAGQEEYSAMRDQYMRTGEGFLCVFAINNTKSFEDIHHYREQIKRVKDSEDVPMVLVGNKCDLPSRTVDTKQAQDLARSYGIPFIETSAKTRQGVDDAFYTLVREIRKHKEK
KRAS G12V, sequence (P01116 with tags, fused parts or gaps isoform P01116-2 G12V): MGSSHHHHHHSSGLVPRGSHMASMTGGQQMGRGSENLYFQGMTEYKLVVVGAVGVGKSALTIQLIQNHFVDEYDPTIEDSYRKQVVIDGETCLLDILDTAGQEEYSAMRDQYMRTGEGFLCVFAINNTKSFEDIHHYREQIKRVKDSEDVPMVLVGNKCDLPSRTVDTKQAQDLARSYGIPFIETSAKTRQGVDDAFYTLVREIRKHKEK
T1 sequence (P01116 with tags, fused parts or gaps isoform P01116-2 G12C): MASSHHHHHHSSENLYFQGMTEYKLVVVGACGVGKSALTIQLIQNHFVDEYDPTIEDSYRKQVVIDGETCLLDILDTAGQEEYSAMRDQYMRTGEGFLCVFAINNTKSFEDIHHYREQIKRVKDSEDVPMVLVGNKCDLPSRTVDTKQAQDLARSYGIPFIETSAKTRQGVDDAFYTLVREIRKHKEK

- IC50 (KRAS G12D): 0.11 µM
- IC50 (KRAS G12V): > 5 µM
- IC50 (KRAS G12C): > 5 µM
- IC50 (KRAS WT): > 5 µM
Structure (SMILES): FC(F)c1ccc2[nH]ncc2c1-c1nccc2c1sc1nc(OC[C@@]34CCCN3C[C@H](F)C4)nc(N3C[C@H]4CC[C@@H](C3)N4)c12 [Ex-14, 4-((1R,5S)-3,8-diazabicyclo[3.2.1]octan-3-yl)-8-(5-(difluoromethyl)-1H-indazol-4-yl)-2-(((2R,7aS)-2-fluorotetrahydro-1H-pyrrolizin-7a(5H)-yl)methoxy)pyrido[4′,3′:4,5]thieno [2,3-d]pyrimidine]
